Earlier results as cited in patent US7598403B2, “Synthesis of chromanones” (priority 2003, dated 2009).

Test system: day-old broiler chicks
Settings: administered to day-old broiler chicks (Lee et al., 1985)

For `CC1(C)CC(=O)c2c(ccc(C(=O)CC(N)CO)c2N)O1` (racemic) [FC101, 5-amino-2,2-dimethyl-6-[3′-(R,S)amino-4′-hydroxy-butan-1-one]-2,3-dihydro-4H-1-benzopyran-4-one], the “induction of Avian Tibial Dyschondroplasia (ATD)” value is listed as “cause ATD”.
